Experimental data taken from US10329309B2, “3-(3H-imidazo[4,5-B]pyridin-2-yl)-1H-pyrazolo[4,3-B]pyridines and therapeutic uses thereof” (Samumed, LLC, priority 2015, dated 2019).

Key:
[1] = test system: primary human mesenchymal stem cells (hMSCs); assay: Induction of chondrogenesis in primary human mesenchymal stem cells (nodule imaging, Rhodamine B/Nile Red); format: cell-based; details: hMSC chondrogenesis; for Emax: TGF-β3 as positive control, read-out: Max. Activity as % TGF-β3 activity; for EC50: concentration required to induce 50% levels of chondrogenesis vs TGF-β3, read-out: Conc (nM) of 50% TGF-β3 activity
Protocol: Representative compounds were screened using primary human mesenchymal stem cells (hMSCs) to determine their ability to induce chondrogenesis (process by which cartilage is developed).
Primary human mesenchymal stem cells (hMSCs) were purchased from Lonza (Walkersville, Md.) and expanded in Mesenchymal Stem Cell Growth Media (Lonza). Cells between passage 3 and 6 were used for the experiments.
Each compound was dissolved in DMSO as a 10 mM stock and used to prepare compound source plates. For the 96 well assay, serial dilution (1:3, 6-point dose-response curves from 2700 nM to 10 nM) and compound transfer was performed using the ECHO 550 (Labcyte, Sunnyvale, Calif.) into 96-well clear bottom assay plates (Greiner Bio-One) with appropriate DMSO backfill for a final DMSO concentration of 0.03%. hMSCs were plated at 20,000 cells/well in 250 μL/well Incomplete Chondrogenic Induction Medium (Lonza; DMEM, dexamethasone, ascorbate, insulin-transferrin-selenium [ITS supplement], gentamycin-amphotericin [GA-1000], sodium pyruvate, proline and L-glutamine). TGF-−3 (10 ng/mL) was used as a positive control for differentiation while negative control wells were treated with 75 nL DMSO for normalization and calculating EC50 values. For the 384 well assay, serial dilution (1:3, 8-point dose-response curves from 5000 nM to 2.2 nM) and compound transfer was performed using the ECHO 550 (Labcyte, Sunnyvale, Calif.) into 384-well clear bottom assay plates (Greiner Bio-One) with appropriate DMSO backfill for a final DMSO concentration of 0.03%. hMSCs were plated at 8,000 cells/well in 80 μL/well Incomplete Chondrogenic Induction Medium (Lonza; DMEM, dexamethasone, ascorbate, insulin-transferrin-selenium [ITS supplement], gentamycin-amphotericin [GA-1000], sodium pyruvate, proline and L-glutamine). TGF-β3 (10 ng/mL) was used as a positive control for differentiation while negative control wells were treated with 25 nL DMSO for normalization and calculating EC50 values. Cells were incubated at 37° C. and 5% CO2 for 6 days. To image chondrogenic nodules, the cells were fixed using 4% formaldehyde (Electron Microscopy Sciences), and stained with 2 μg/mL Rhodamine B (Sigma-Aldrich) and 20 μM Nile Red (Sigma-Aldrich) [Johnson K., et. al, A Stem Cell-Based Approach to Cartilage Repair, Science, (2012), 336(6082), 717-721]. The nodules imaged (25 images per well for 96 well plates and 9 images per well for 384 well plates at 10× magnification) by excitation at 531 nm and emission at 625 nm and quantified using the CellInsight CX5 (Thermo Scientific). Area of nodules in each well was normalized to the average of 3 DMSO treated wells on the same plate using Excel (Microsoft Inc.). The normalized averages (fold change over DMSO) of 2 or 3 replicate wells for each compound concentration were calculated. Due to solubility limitations of some of the compounds, curve fitting was incomplete leading to inaccurate EC50 determinations.
Using TGF-β3 as a positive control, the concentration of representative compounds required to induce 50% levels of chondrogenesis is reported. In addition, the maximum activity of each compound and the respective dose that each compound reached maximum chondrogenesis activity is reported.

IL-6 (THP-1 cells) = assay: Inhibition of IL-6 in LPS-stimulated THP-1 monocytes (HTRF); format: cell-based; details: Homo sapiens; for EC50: LPS 500 ng/mL, IL-6 by HTRF; for inhibition at 10 µM: LPS stimulated, IL-6, at 10 μM, read-out: percent inhibition at 10 μM (given for EC50 of >10 μM)
Method in brief: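 IL-6 release was read as the HTRF 665/620 nm ratio after 22 h of 500 ng/mL LPS at 37 °C. Before stimulation, THP-1 cells kept 24 h in 1% FBS were exposed 2 h to a 10-point 1:3 compound series starting at 10 μM, in 0.1% DMSO. Four-parameter EC50s came from DMSO-normalized duplicates, with % inhibition at 10 μM reported beyond 10 μM.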

SMILES	EC50 (IL-6 (THP-1 cells)) [nM]	EC50 [1] [nM]	Emax [1] [%]	inhibition at 10 µM (IL-6 (THP-1 cells)) [%]
CC(C)(C)C(=O)Nc1cncc(-c2ccc3[nH]nc(-c4nc5c(-c6ccc(F)cc6)ccnc5[nH]4)c3n2)c1 [Compound 36, N-(5-(3-(7-(4-fluorophenyl)-3H-imidazo[4,5-b]pyridin-2-yl)-1H-pyrazolo [4,3-b]pyridin-5-yl)pyridin-3-yl)pivalamide]	> 10000	10	63	19.2
CCCCC(=O)Nc1cncc(-c2ccc3[nH]nc(-c4nc5c(-c6ccccn6)ccnc5[nH]4)c3n2)c1 [Compound 159, N-(5-(3-(7-(pyridin-2-yl)-3H-imidazo[4,5-b]pyridin-2-yl)-1H-pyrazolo[4,3-b]pyridin-5-yl)pyridin-3-yl)pentanamide]	> 10000	100	60	33.6
Fc1cccc(-c2ccnc3[nH]c(-c4n[nH]c5ccc(-c6ccncc6)nc45)nc23)c1 [Compound 18, 3-(7-(3-fluorophenyl)-3H-imidazo[4,5-b]pyridin-2-yl)-5-(pyridin-4-yl)-1H-pyrazolo[4,3-b]pyridine]	> 10000	–	42	18.4
O=C(Cc1ccccc1)Nc1cncc(-c2ccc3[nH]nc(-c4nc5c(-c6ccncc6)ccnc5[nH]4)c3n2)c1 [Compound 122, 2-phenyl-N-(5-(3-(7-(pyridin-4-yl)-3H-imidazo[4,5-b]pyridin-2-yl)-1H-pyrazolo[4,3-b]pyridin-5-yl)pyridin-3-yl)acetamide]	> 10000	10	63	27
Nc1cncc(-c2ccc3[nH]nc(-c4nc5c(-c6ccccc6F)ccnc5[nH]4)c3n2)c1 [Compound 59, 5-(3-(7-(2-fluorophenyl)-3H-imidazo[4,5-b]pyridin-2-yl)-1H-pyrazolo[4,3-b]pyridin-5-yl)pyridin-3-amine]	2120	10	127	–
CN(C)c1cncc(-c2ccc3[nH]nc(-c4nc5c(N6CCCCC6)ccnc5[nH]4)c3n2)c1 [Compound 175, N,N-dimethyl-5-(3-(7-(piperidin-1-yl)-3H-imidazo[4,5-b]pyridin-2-yl)-1H-pyrazolo [4,3-b]pyridin-5-yl)pyridin-3-amine]	> 10000	–	42	27.6
O=C(Nc1cncc(-c2ccc3[nH]nc(-c4nc5c(-c6ccncc6)ccnc5[nH]4)c3n2)c1)C1CCCCC1 [Compound 135, N-(5-(3-(7-(pyridin-4-yl)-3H-imidazo[4,5-b]pyridin-2-yl)-1H-pyrazolo[4,3-b]pyridin-5-yl)pyridin-3-yl)cyclohexanecarboxamide]	> 1000	10	69	22.1
Cc1cn(-c2ccnc3[nH]c(-c4n[nH]c5ccc(-c6cncc(NC(=O)C(C)(C)C)c6)nc45)nc23)cn1 [Compound 204, N-(5-(3-(7-(4-methyl-1H-imidazol-1-yl)-3H-imidazo[4,5-b]pyridin-2-yl)-1H-pyrazolo[4,3-b]pyridin-5-yl)pyridin-3-yl)pivalamide]	> 10000	10	70	36.3

Now from value to compound, other results behind:

EC50 (IL-6 (THP-1 cells)) [nM]	EC50 [1] [nM]	SMILES	Emax [1] [%]	inhibition at 10 µM (IL-6 (THP-1 cells)) [%]
> 10000	–	CCCC(=O)Nc1cncc(-c2ccc3[nH]nc(-c4nc5c(-c6cc(F)cc(CNS(C)(=O)=O)c6)ccnc5[nH]4)c3n2)c1 [Compound 493, N-(5-(3-(7-(3-fluoro-5-(methylsulfonamidomethyl)phenyl)-3H-imidazo[4,5-b]pyridin-2-yl)-1H-pyrazolo[4,3-b]pyridin-5-yl)pyridin-3-yl)butyramide]	43	23.4
> 10000	–	Cc1cn(-c2ccnc3[nH]c(-c4n[nH]c5ccc(-c6cncc(CN7CCCC7)c6)nc45)nc23)cn1 [Compound 210, 3-(7-(4-methyl-1H-imidazol-1-yl)-3H-imidazo[4,5-b]pyridin-2-yl)-5-(5-(pyrrolidin-1-ylmethyl)pyridin-3-yl)-1H-pyrazolo[4,3-b]pyridine]	49	21.7
> 10000	900	CC(C)C(=O)Nc1cncc(-c2ccc3[nH]nc(-c4nc5c(N6CCN(C)CC6)ccnc5[nH]4)c3n2)c1 [Compound 233, N-(5-(3-(7-(4-methylpiperazin-1-yl)-3H-imidazo[4,5-b]pyridin-2-yl)-1H-pyrazolo [4,3-b]pyridin-5-yl)pyridin-3-yl)isobutyramide]	62	16.4
> 10000	–	CN1CCN(c2ccnc3[nH]c(-c4n[nH]c5ccc(-c6cncc(N)c6)nc45)nc23)CC1 [Compound 227, 5-(3-(7-(4-methylpiperazin-1-yl)-3H-imidazo[4,5-b]pyridin-2-yl)-1H-pyrazolo[4,3-b]pyridin-5-yl)pyridin-3-amine]	47	51.9
> 10000	7	Fc1cccc(-c2ccnc3[nH]c(-c4n[nH]c5ccc(-c6cn[nH]c6)nc45)nc23)c1 [Compound 507, 3-(7-(3-fluorophenyl)-3H-imidazo[4,5-b]pyridin-2-yl)-5-(1H-pyrazol-4-yl)-1H-pyrazolo[4,3-b]pyridine]	57	35.9
> 10000	–	Cn1cc(-c2ccc3[nH]nc(-c4nc5c(-c6cccc(F)c6)ccnc5[nH]4)c3n2)cn1 [Compound 508, 3-(7-(3-fluorophenyl)-3H-imidazo[4,5-b]pyridin-2-yl)-5-(1-methyl-1H-pyrazol-4-yl)-1H-pyrazolo[4,3-b]pyridine]	43	15.5
